In experiment [1] the target is T1, human CaSR E297A mutant (Homo sapiens, UniProt P41180, E297A).
T1 construct: (N); expressed in transfected cells; host or cells: PEAKrapid cells (ATCC), pcDNA 3.1, transient transfection
T1 sequence (P41180 20-1078 E297A): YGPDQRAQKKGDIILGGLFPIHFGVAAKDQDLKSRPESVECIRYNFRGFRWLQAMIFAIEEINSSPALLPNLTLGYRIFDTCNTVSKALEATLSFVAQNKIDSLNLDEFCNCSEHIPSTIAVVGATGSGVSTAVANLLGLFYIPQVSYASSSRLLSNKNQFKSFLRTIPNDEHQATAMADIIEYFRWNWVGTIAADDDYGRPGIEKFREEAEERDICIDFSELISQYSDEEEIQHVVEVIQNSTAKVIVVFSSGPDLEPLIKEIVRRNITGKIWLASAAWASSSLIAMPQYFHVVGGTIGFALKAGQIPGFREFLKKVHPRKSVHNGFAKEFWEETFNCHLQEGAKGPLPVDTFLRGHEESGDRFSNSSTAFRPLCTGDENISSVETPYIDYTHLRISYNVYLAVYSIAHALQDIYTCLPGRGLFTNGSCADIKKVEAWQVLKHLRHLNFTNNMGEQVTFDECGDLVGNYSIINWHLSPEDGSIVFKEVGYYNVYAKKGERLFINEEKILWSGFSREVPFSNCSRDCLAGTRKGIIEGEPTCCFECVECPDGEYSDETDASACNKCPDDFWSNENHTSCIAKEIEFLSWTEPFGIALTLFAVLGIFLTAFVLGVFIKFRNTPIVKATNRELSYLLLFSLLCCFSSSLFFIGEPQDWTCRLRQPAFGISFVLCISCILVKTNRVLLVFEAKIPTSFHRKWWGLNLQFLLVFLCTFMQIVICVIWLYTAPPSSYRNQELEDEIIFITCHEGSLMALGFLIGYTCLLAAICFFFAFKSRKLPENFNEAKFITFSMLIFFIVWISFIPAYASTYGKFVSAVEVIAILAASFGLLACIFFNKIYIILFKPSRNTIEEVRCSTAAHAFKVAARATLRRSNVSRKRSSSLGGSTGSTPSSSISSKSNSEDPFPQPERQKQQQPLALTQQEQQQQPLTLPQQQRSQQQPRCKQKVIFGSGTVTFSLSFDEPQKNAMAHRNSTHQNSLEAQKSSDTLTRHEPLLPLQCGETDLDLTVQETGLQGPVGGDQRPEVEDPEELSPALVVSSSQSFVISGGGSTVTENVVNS
Kind of experiment: Calcium mobilization assay, CaSR E297A mutant. Format: cell-based. The settings on record: for Response in calcium mobilization assay: in words. On the procedure: (§1) The CaSR receptor responsiveness was assessed by using PEAK^rapid cells (ATCC, Manassas, VA, USA) transiently transfected with the receptor DNA by the method reported by Kitajima et al.[6]. Briefly, human CaSR or its mutant cDNA with a signal sequence (MAFYSCCWVLLALTWHTSA) followed by FLAG-tag (DYKDDDDK) were inserted into pcDNA 3.1 expression vectors in Opti-MEM I medium (Thermo Fisher Scientific), mixed with FuGENE 6 (Roche), and poured onto PEAK^rapid cells grown at a submaximal concentration. After culturing for 24 h in 96-well plates, the cells were incubated with 5 µM Calcium-5 solution (Calcium-5 assay kit, Molecular Devices) for 45–60 min, and measurements were performed using a plate reader (FDSS/µCELL, Hamamatsu Photonics, Shizuoka, Japan) and its associated software. The activation of CaSR expressed in cells increases the intracellular Ca^2+ concentration, which is measured using a Ca^2+-sensitive dye. The binding of Ca^2+ to the Ca^2+-sensitive dye increases dye fluorescence, with excitation at 485 nm and emission at 525 nm. Test compounds were dissolved and administered in the assay buffer (146 mM NaCl, 1 mM MgSO4, 20 mM HEPES, 1 mM CaCl2, 2.5 mM probenecid, and 1.39 mM glucose, pH 7.4). Transiently transfected cells were challenged with compounds and compared with the vehicle alone and/or mock-transfected cells. The concentration dependence of the fluorescence intensity (influx of Ca^2+) was analyzed using the plate reader at 1 s intervals for 180 s. For the dose–response curve calculations, peak fluorescence responses after the addition of compounds were corrected for, normalized to the background fluorescence (ΔF/F = –F − F0)/F0), and baseline noise was subtracted. Dose–response curves were calculated by non-linear regression using GraphPad PRISM 8.0.
On the technique in general: Calcium flux is commonly read through the fluorescence of an indicator in the cells.

Experiment [2] deals with T2, human CaSR N102F mutant (Homo sapiens, UniProt P41180, N102F).
T2 construct: (N); expressed in transfected cells; host or cells: PEAKrapid cells (ATCC), pcDNA 3.1, transient transfection
T2 sequence (P41180 20-1078 N102F): T1 sequence (P41180 20-1078 E297A) with N83F, A278E
Description: Calcium mobilization assay, CaSR N102F mutant. Format: cell-based. The settings on record: for Response in calcium mobilization assay: in words, compared with wild type; for Emax: read-out: Emax (% of wild-type values). The protocol:
as §1

Where [3] appears, read: N102F mutant, mean ± s.e.m., n = 3, read-out: EC50.

Structures are written as SMILES. Changes are numbered by the printed parent chain. Where two headings read alike, the source gives them in different places. *1 amine or outer side, *2 acyl side, *3 side chain or, on linkers, in order; H or OH if unused. Where a SMILES comes first, the peptide text is derived from it. γGlu = O=C(O)[CH](CCC(=O)[*:2])N[*:1]

`N[C@@H](Cc1ccc(O)cc1)C(=O)O` [L-Tyr, L-tyrosine]: the “Response in calcium mobilization assay” value in experiment [1] is “no response”; in experiment [2] (N102F mutant) it was “more active than the wild type”. In experiment [2] (setting [3]), the EC50 (commonly the midpoint of the concentration-response curve) is 2160 ± 400 µM. In addition, the Emax (as a rule, the greatest response seen or fitted, relative to the assay's reference) in experiment [2] (N102F mutant) came to 132%.

On to `CC(C)[C@H](NC(=O)CC[C@H](N)C(=O)O)C(=O)O` [γ-EV, γ-glutamyl-valine], for which the “Response in calcium mobilization assay” value in experiment [1] is given as “no response”. Further, in experiment [2] (N102F mutant), the “Emax (% of wild-type values)” value was 194.8 % of WT and the “Response in calcium mobilization assay” value is “more active than the wild type”. The EC50 in experiment [2] (setting [3]) is 4.48 ± 0.2 µM.

On to `CC(C)C(NC(=O)CCC(N)C(=O)O)C(=O)NCC(=O)O` (stereo not drawn) [γ-EVG, γ-glutamyl-valyl-glycine] (γGlu-Val-Gly-OH; configuration not given here), for which the “Response in calcium mobilization assay” value in experiment [1] is “greatly reduced the response”. Besides, in experiment [2] (6.52 / 0.18, N102F vs wild type), the “EC50 of N102F mutant relative to wild-type EC50” value is “approximately 36.2 fold”. The EC50 in experiment [2] (N102F mutant, read-out: EC50 of the N102F mutant) worked out at 6.52 ± 0.1 µM. Besides, the Emax in experiment [2] was 95.7%.

Consider `[Ca+2].[Cl-].[Cl-]` [CaCl2], for which the “Emax (% of wild-type values)” value in experiment [1] was 86.0 % of WT; in experiment [2] (N102F mutant), 87.8 % of WT. Besides, the EC50 in experiment [1] (mean ± s.e.m., n = 3) amounted to 6580 ± 300 µM; in experiment [2] (setting [3]), 2750 ± 210 µM.

The values are drawn from PMC11785791, “Cryo-EM structure of the calcium-sensing receptor complexed with the kokumi substance γ-glutamyl-valyl-glycine” (Scientific Reports, 2025).
